From patent US7947854B2, “Bis-cationic compounds and use thereof” (The University of Sydney, priority 2003, dated 2011)
Converted amounts (≈) assume the structure as drawn. “And” between values parts separate entries of the source, which are not always exact repeats. Identical values can stand only once. Each block holds one compound with its values, some of them ahead of it.

Key:
[1] = tested on: secreted phospholipase B (PLB activity); assay: Radiometric assay, secreted PLB activity; assay type: biochemical, Cryptococcus neoformans H99; details: for PLB, percentage inhibition of activity: Secretory Cryptococcal H99 Phospholipase
Summary of the method: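 Secreted enzyme was taken from cell-free supernatant of Cryptococcus isolate H99 cells incubated 24 h at 37° C. Reactions at 37° C, pH 4.0 imidazole acetate, used 800 μM DPPC with [14C]-dipalmitoyl PC and 1 μg protein for 22 min. PLB was measured as radiolabelled PC loss by TLC, with inhibition expressed versus inhibitor-free control; compounds were tested at 25 and 250 μM, then 2.5 and 0.25 μM.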

[2] = tested on: secreted phospholipase B (LPL/LPTA activities); assay: Radiometric assay, secreted LPL and LPTA activities (Lyso assay); assay type: biochemical, Cryptococcus neoformans H99
Protocol: Fungal isolates and media. […] Isolate H99 was kindly supplied by Dr. Gary Cox (Duke University Medical Center, Durham, N.C., USA), and subcultured onto Sabouraud dextrose agar (SDA) at 30° C.
Preparation of supernatants containing secreted phospholipase activities. Isolate H99 was grown to confluence on SDA in 16 cm diameter Petri dishes for 72 h at 30° C. in air. Cells scraped from 10-20 dishes were washed sequentially with isotonic saline and imidazole buffer (10 mM imidazole, 2 mM CaCl2, 2 mM Mg Cl2, 56 mM D-Glucose, made up in isotonic saline, pH 5.5), resuspended in a volume of this buffer of about 10% of the cell volume, and incubated for 24 h at 37° C. The cell-free supernatant was separated by centrifugation as previously described and stored at −70° C.
(§1) Secreted LPL and LPTA activities were measured simultaneously in a reaction mixture containing 1-[^14C]palmitoyl lyso-PC (25,000 dpm) and carrier lyso-PC (final concentration 200 μM) in assay buffer. The reaction time was […] with 1 μg of total protein and LPL activity was measured by the rate of loss of 1-[^14C]palmitoyl lyso-PC with release of radiolabelled fatty acids. LPTA activity was estimated from the rate of formation of radiolabelled PC.
All reactions were terminated by adding 0.5 mL of chloroform:methanol (2:1 v/v). The reaction products were extracted by the method as disclosed in Bligh, E. C. and W. J. Dyer. 1959 ‘A rapid method of total lipid extraction and purification.’ Can. J. Biochem. Physiol. 37:911-917, separated by TLC and quantified as previously described. In the case of PLC activity, the TLC plates were developed in petroleum ether (BP 60-80° C.): diethyl ether: acetic acid (90:15:1, v/v/v) instead of chloroform:methanol:water (65:25:4, v/v/v).
Preparation of inhibitors and use in assays. The following compounds were tested (for structures, see FIG. 2): compound 1, 1,12-bis(tributylphosphonium)dodecane dibromide (Fluka AG, Buchs, Switzerland); compound 2, 1,10-bis(tributylammonium)-decane dibromide; compound 3, 1,12-bis(tributylammonium)do-decane dibromide (both synthesised in-house); compound 4, 1,10-bis(trimethylammonium)decane dibromide [“decamethonium”] (Sigma, St. Louis Mo., USA). All compounds were prepared as stock solutions of 700 μM in assay buffer containing 5 mM EDTA, which was then diluted serially with buffer to obtain solutions of 70, 7, 0.7 and 0.07 μM. In each assay, 45 μL of these solutions was used, and the final volume of 125 μL was made up of substrate, enzyme and buffer. The radiometric assay was carried out as above. Inhibition was calculated as the percent of substrates (DPPC or Lyso-PC) remaining in the case of PLB and LPL activities, or of DPPC produced, in the case of the LPTA activity. The amounts converted, or produced, in the inhibitor-free control were normalised to 100%, and the inhibition calculated against it. All assays were done in triplicate.
Under these conditions only PLB, LPL and LPTA activities (both secreted and cell-associated) were measured. Initially, compounds deemed to be potential inhibitors were assayed at 25 and 250 μM. Those showing some inhibition were then also assayed at 2.5 and 0.25 μM.

[3] = tested on: Candida albicans ATCC 10231; assay: Antifungal susceptibility testing, microdilution MIC; assay type: cell-based; details: Candida albicans, ATCC10231
Summary of the method: (§2)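 Standard microdilution method, run in duplicate, using serial dilutions of cationic compounds.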

[4] = tested on: Cryptococcus neoformans ATCC 90112; assay: as above; assay type: cell-based; details: Cryptococcus neoformans, ATCC90112
Summary of the method: as §2

[5] = tested on: MRSA (methicillin resistant S. aureus); assay: In vitro antibacterial activity, NCCLS M7-A6; assay type: cell-based; details: Staphylococcus aureus, read-out: MIC MRSA (methicillin resistant S. aureus)
Protocol: (§3) Two bis-cationic compounds were tested for antibacterial activity. The assay used was that published by the National Committee for Clinical Laboratory Standards. 2003. Methods for Dilution Antimicrobial Susceptibility Tests for Bacteria That Grow Aerobically: Approved Standard—Sixth Edition. NCCLS document M7-A6. Villanova, Pa., USA.

[6] = tested on: Pseudomonas ariginosa 122; assay: In vitro antibacterial activity, NCCLS M7-A6; assay type: cell-based
Protocol: as §3

[7] = tested on: VRE (Vancomycin resistant Enterococcus); assay: In vitro antibacterial activity, NCCLS M7-A6; assay type: cell-based
Protocol: as §3

[8] = tested on: Aspergillus flavus ATCC 204 304; assay: In vitro antifungal activity, filamentous fungi, NCCLS M38-A; assay type: cell-based; details: Aspergillus flavus, ATCC204
Text: (§4) The assay used for filamentous fungi (Aspergillus; Scedosporium; Fusarium) was that published by the National Committee for Clinical Laboratory Standards. 2002. Reference Method for Broth Dilution Antifungal Susceptibility Testing of Filamentous Fungi: Approved Standard. NCCLS document M38-A.Villanova, Pa., USA.

[9] = tested on: Aspergillus fumigatus ATCC 204 305; assay: as above; assay type: cell-based; details: Aspergillus fumigatus, ATCC204
Text: as §4

[10] = tested on: Aspergillus terreus ATCC 03-232-378; assay: as above; assay type: cell-based; details: Aspergillus terreus, ATCC03
Text: as §4

[11] = tested on: Fusarium solani 04-132-4207; assay: as above; assay type: cell-based; details: Fusarium solani, 041324207
Text: as §4

[12] = tested on: Scedosporium apiospermum 1-003-056; assay: as above; assay type: cell-based; details: Scedosporium apiospermum, 1003056
Text: as §4

[13] = tested on: Scedosporium prolificans 1-003-040; assay: as above; assay type: cell-based; details: Lomentospora prolificans, 1003040
Text: as §4

[14] = tested on: Candida albicans ATCC 10231; assay: In vitro antifungal activity, yeasts, NCCLS M27-A; assay type: cell-based; details: Candida albicans, ATCC10231; Table 9
Text: (§5) The assay used for yeasts (Candida; Cryptococcus) is that of the National Committee for Clinical Laboratory Standards. 1997. Reference Method for Broth Dilution Antifungal Susceptibility Testing of Yeasts: Approved Standard. NCCLS document M27-A.Villanova, Pa., USA as published in Ghannoum, M. A., A. S. Ibrahim, Y. Fu, M. C. Shafiq, J. E Edwards, Jr. and R. S. Criddle. 1992. Susceptibility testing of Cryptococcus neoformans: A microdilution technique. J. Clin. Microbiol. 30:2881-2886.

[15] = tested on: Cryptococcus neoformans ATCC 90112; assay: In vitro antifungal activity, yeasts, NCCLS M27-A; assay type: cell-based; details: Cryptococcus neoformans, ATCC90112; Table 9
Text: as §5

[16] = target: T1, Porcine pancreatic phospholipase A2 (Sus scrofa, UniProt P00592); assay: Pancreatic phospholipase assay; assay type: biochemical; details: read-out: ppPLA2, percentage inhibition of activity
T1 construct: purchased Sigma, St. Louis MO, USA
Protocol: Pancreatic phospholipase assay. Porcine pancreatic phospholipase A2 suspension in 3.2M ammonium sulfate (2.9 mg protein/mL, Sigma St.Louis Mo., USA) was used. One part of well mixed enzyme suspension was added to 4 parts of buffer (10 mM Tris/HCl, pH 8.2; 10 mM CaCl2. Activity and inhibition by test compounds was then measured by the radiometric method described in Example 2 for fungal PLB activity. However, 25 μL enzyme solution was used, and the reaction time was 1 hour. These conditions result in ˜60% substrate conversion in the inhibitor-free control.

[17] = tested on: C. neoformans strain H99 phospholipases; assay: Inhibition of C. neoformans strain H99 phospholipases (all enzymes and activities); assay type: biochemical, Cryptococcus neoformans H99
Protocol: Radiometric assay method for phospholipases. Enzyme activities were measured as described previously in a final volume of 125 μL at 37° C. For the determination of secreted PLB activity, carrier dipalmitoyl phosphatidylcholine (DPPC, final concentration 800 μM) and 1,2-di[1-^14C] palmitoyl phosphatidylcholine (20,000 dpm) were dried under nitrogen and suspended in 125 mM imidazole acetate buffer (assay buffer, pH 4.0) by sonication using a Branson 450 sonifier. The reaction time was 22 min, using 1 μg total protein and PLB activity was determined by the rate of decrease of the radiolabelled PC substrate, with appearance of the label in free fatty acid. […] These activities were measured by the appearance of radiolabel from PC in Lyso PC, diacylglycerol and phosphatidic acid, respectively.
as §1, with “LPTA activity was estimated from the rate of formation of radiolabelled PC.” left out
All reactions were terminated by adding 0.5 mL of chloroform:methanol (2:1 v/v). […] 37:911-917, separated by TLC and quantified as previously described. […]

Escherichia coli 25922 = assay: In vitro antibacterial activity, NCCLS M7-A6; assay type: cell-based
Protocol: as §3

[18] = tested on: Staphylococcus aureus 25923; assay: In vitro antibacterial activity, NCCLS M7-A6; assay type: cell-based
Protocol: as §3

[19] = tested on: Streptococcus pneumonia 49619; assay: In vitro antibacterial activity, NCCLS M7-A6; assay type: cell-based; details: Streptococcus pneumoniae
Protocol: as §3

[20] = Table 7, read-out: MIC (μM) C. alb. (10231)
[21] = Table 7, read-out: MIC (μM) Crypto. (ATCC 90112)

T1 sequence (P00592 23-146): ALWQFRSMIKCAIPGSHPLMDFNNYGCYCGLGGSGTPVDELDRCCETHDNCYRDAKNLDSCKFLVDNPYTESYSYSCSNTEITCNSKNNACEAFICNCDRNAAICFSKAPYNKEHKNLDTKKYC

SMILES: CCCC[N+](CCCC)(CCCC)CCCCCCCCCCCCCCCC[N+](CCCC)(CCCC)CCCC [1,16-bis-(tributylammonium)hexadecane]
PLB assay (% inhibition) ([1]; 25 μM): 48%
PLB assay (% inhibition) ([1]; 250 μM): 62%
Lyso assay (% inhibition) LPL ([2]; 25 μM): 5%
Lyso assay (% inhibition) LPTA ([2]; 25 μM): 15%
Lyso assay (% inhibition) LPL ([2]; 250 μM): 10%
Lyso assay (% inhibition) LPTA ([2]; 250 μM): 6%
MIC [3, 20]: 5.5 µM
MIC [4, 21]: 2.2 µM
MIC [5]: 5 µg/mL and 11 µM
MIC [6]: 106 µg/mL and 160 µM
MIC [7]: 3.6 µg/mL and 5.5 µM
MIC [8]: 14.6 µg/mL and 22 µM
MIC [9]: 7.3 µg/mL and 11 µM
MIC [10]: 7.3 µg/mL and 11 µM
MIC [11]: 14.6 µg/mL and 22 µM
MIC [12]: 3.6 µg/mL and 5.5 µM
MIC [13]: 7.3 µg/mL and 11 µM
MIC [14]: 7.2 µg/mL and 11 µM
MIC [15]: 3.6 µg/mL and 5.5 µM

SMILES: C[N+](C)(C)CCCCCCCCCC[N+](C)(C)C [Compound 4, 1,10-bis(trimethylammonium)decane dibromide, reference compound]
PLB assay (% inhibition) ([1]; 0.25 μM): 250 μM = 0% 25 μM = 0% 2.5 μM = 0% 0.25 μM = 0%
PLB assay (% inhibition) ([1]; 2.5 μM): 250 μM = 0% 25 μM = 0% 2.5 μM = 0% 0.25 μM = 0%
PLB, percentage inhibition of activity ([1]; 2.5 μM): 0%
PLB assay (% inhibition) ([1]; 25 μM): 250 μM = 0% 25 μM = 0% 2.5 μM = 0% 0.25 μM = 0%
PLB, percentage inhibition of activity ([1]; 25 μM): 0%
PLB assay (% inhibition) ([1]; 250 μM): 250 μM = 0% 25 μM = 0% 2.5 μM = 0% 0.25 μM = 0%
PLB, percentage inhibition of activity ([1]; 250 μM): 0%
Lyso assay (% inhibition) LPL ([2]; 0.25 μM): 250 μM = 0% 25 μM = 0% 2.5 μM = 0% 0.25 μM = 0%
Lyso assay (% inhibition) LPTA ([2]; 0.25 μM): 250 μM = 0% 25 μM = 0% 2.5 μM = 0% 0.25 μM = 0%
Lyso assay (% inhibition) LPL ([2]; 2.5 μM): 250 μM = 0% 25 μM = 0% 2.5 μM = 0% 0.25 μM = 0%
Lyso assay (% inhibition) LPTA ([2]; 2.5 μM): 250 μM = 0% 25 μM = 0% 2.5 μM = 0% 0.25 μM = 0%
Lyso assay (% inhibition) LPL ([2]; 25 μM): 250 μM = 0% 25 μM = 0% 2.5 μM = 0% 0.25 μM = 0%
Lyso assay (% inhibition) LPTA ([2]; 25 μM): 250 μM = 0% 25 μM = 0% 2.5 μM = 0% 0.25 μM = 0%
Lyso assay (% inhibition) LPL ([2]; 250 μM): 250 μM = 0% 25 μM = 0% 2.5 μM = 0% 0.25 μM = 0%
Lyso assay (% inhibition) LPTA ([2]; 250 μM): 250 μM = 0% 25 μM = 0% 2.5 μM = 0% 0.25 μM = 0%
inhibition at 2.5 µM [16]: 0%
inhibition at 25 µM [16]: 0%
inhibition at 250 µM [16]: 0%
enzyme (phospholipase) inhibition, in words [17]: neither enzyme inhibition
MIC ([3]; Table 6, no visible growth after 48 h at 35° C., read-out: MIC C. albicans ATCC 10231): > 350 µM
MIC [3, 20]: ≥ 350 µM
MIC ([4]; Table 6, no visible growth after 72 h at 35° C., read-out: MIC C. neof. ATCC 90112): 88 µM
MIC [4, 21]: ≥ 350 µM

MIC (Escherichia coli 25922): 8 to 16 µg/mL (≈ 21.9 to 43.8 µM)
MIC [18]: 0.25 to 0.5 µg/mL (≈ 0.684 to 1.37 µM)
MIC [19]: 0.06 to 0.12 µg/mL (≈ 0.164 to 0.328 µM)
SMILES: CC1(C)S[C@@H]2[C@H](NC(=O)[C@H](N)c3ccc(O)cc3)C(=O)N2[C@H]1C(=O)O [amoxicillin, reference compound]

SMILES: CN[C@H](CC(C)C)C(=O)N[C@H]1C(=O)N[C@@H](CC(N)=O)C(=O)N[C@H]2C(=O)N[C@H]3C(=O)N[C@H](C(=O)N[C@H](C(=O)O)c4cc(O)cc(O)c4-c4cc3ccc4O)[C@H](O)c3ccc(c(Cl)c3)Oc3cc2cc(c3O[C@@H]2O[C@H](CO)[C@@H](O)[C@H](O)[C@H]2O[C@H]2C[C@](C)(N)[C@H](O)[C@H](C)O2)Oc2ccc(cc2Cl)[C@H]1O [vancomycin, reference compound]
MIC [5]: 1 µg/mL (≈ 0.69 µM)
